Source: patent US11203588B2, “Anti-cancer and splice modulating compounds and methods” (The Regents of the University of California, priority 2016, dated 2021)
≈ marks a conversion by molar mass, not a printed value.

Assays:
[1] = system: primary CLL-B cells; assay: In vitro cytotoxicity, specific induced apoptosis (% SIA), flow cytometry; type: cell-based, human (CLL patients); conditions: for IC50: 48 h
Source text: Peripheral blood mononuclear cells (PBMC) from CLL patients were obtained from the CLL Research Consortium (CRC) tissue bank. This protocol was approved by the institutional review board (IRB) of the University of California, San Diego. Blood samples were taken from two CLL patients after written informed consent for blood sample collection and confirmation of diagnosis for CLL diseases, The PBMCs were separated from heparinized venous blood by density gradient centrifugation using Ficoll-Hypaque media (GE Healthcare). The samples with >95% positively for leukemic B cells was confirmed by staining for CD5 and CD19 followed by assessment using flow cytometry. CLL-B cells were maintained in RPMI 1640 medium supplemented with 10% FBS, 2 mM L-glutamine, and 100 U/mL of penicillin and 100 μg/mL of streptomycin at 37° C. in an atmosphere containing 5% CO2.
The CLL-B cells (3×10^5 cells) were treated for 48 h with 10, 100, 300, and 1000 nM of 1a, 1b, 2 or 19 at 37° C. in an atmosphere containing 5% CO2. Fludarabine (F-ara-A) dosed at 10 μM was used as a control. The cells were centrifuged and labeled with CD19/CD5/DiOC6 and subjected to flow cytometry. The data was analyzed using FlowJo software. […] The dose-response curves were plotted to determine IC50 values using the GraphPad Prism version 6.0c software.

[2] = system: alternate splicing of MCL1 and BCL-X in CLL-B cells; assay: RT-PCR analysis of alternate splicing (AS); type: cell-based, human (CLL patients); conditions: for alternate splicing (AS) events: H2A as unspliced loading control
[3] = system: intron retention in DNAJB1, ARF4, PRPF4, RIOK3, SF3A1, and U2AF2 in primary CLL-B cells; assay: RT-PCR / qRT-PCR analysis of intron retention (IR); type: cell-based; conditions: six genes, 4 h treatment, RNU6A and GAPDH as controls
Procedure: CLL-B (5×10^6 cells/well) were treated with a given dose of compound from a DMSO stock solution over 4 h. RNA isolation and cDNA preparation, PCR reaction was performed in 20 μL of reaction volume as described previously.^S3 PCR conditions give by incubation at 94° C. for 3 min; 35 cycles of 94° C. for 30 s, 55-60° C. (annealing temperature: 55° C. for GAPDH, 53.6° C. for RNU6A, 58° C. for DNAJB1, 54° C. for SF3A1, 55° C. for PRPF4, 55° C. for ARF4, and 55° C. for U2AF2) for 30 s, and 72° C. for 1 min; followed by 72° C. for 5 min. PCR products were separated on a 2% agarose gel and stained with ethidium bromide.
cDNA was prepared using identical methods as used for RT-PCR analysis. The amount of unspliced RNA for different genes was determined using Power SYBR Green PCR master mix (Applied Biosystems) by qRT-PCR using specific primers designed for detection of the intron of each gene (Table 2). The qPCR was performed using 5 pM of each primer on 20 ng of the obtained cDNA. PCR conditions were as follows: one cycle of 50° C. for 2 min (UDG Incubation), one cycle of 95° C. for 10 min (UDG Inactivation), followed by 95° C. for 15 sec; 60° C. for 30 s for 40 cycles and adding a step for dissociation using a 7900 HT Fast Real Time PCR System (Applied Biosystems). Unspliced RNA levels were calculated using 2-ΔΔCT method.^S4 GAPDH was used as a control for normalization.

[4] = Solubility by capillary NMR with solvent 13C-satellites (QSCS); type: physicochemical
Source text: (§1) Early studies indicate that 2 was more soluble and stable in aqueous buffers than FD-895 (1a).

[5] = Stability in aqueous buffer by NMR monitoring; type: physicochemical; conditions: after 744 h (1 month), D2O/DMSO-d6 (10:1) at 37° C.
Source text: as §1

[6] = primary CLL-B cells from two CLL patients

| Compound | IC50 ([1]; Homo sapiens, primary CLL-B cells, both sets of cells) | alternate splicing (AS) events [2] | splice modulation via intron retention (IR) [3] | solubility (soluble up to) ([4]; D2O/DMSO-d6 (10:1) at 23° C.) | IC50 [1, 6] | MCL1 long (anti-apoptotic) and short (pro-apoptotic) isoform expression [2] | solubility ([4]; 23 °C, aqueous with cosolvent or surfactant or cyclodextrin) | IC50 ([1]; Homo sapiens, primary CLL-B cells from two CLL patients) | loss of activity when compared to FD-895 (1a) ([1]; primary CLL-B cells, IC50 based) | decomposition (stability) [5] |
| --- | --- | --- | --- | --- | --- | --- | --- | --- | --- | --- |
| CC[C@H](OC)[C@@H](C)/C=C/[C@H](O)[C@@H](C)/C=C/C=C(\C)[C@H]1O[C@H](OC)[C@H](OC)[C@@H](OC)[C@@H]1OC [Alkene 19, (2E,4E,6S,7S,8E,10S,11S)-11-methoxy-6,10-dimethyl-2-((2R,3R,4S,5R,6S)-3,4,5,6-tetramethoxytetrahydro-2H-pyran-2-yl)trideca-2,4,8-trien-7-ol] | > 50000 nM | did not induce AS | inactive for all six genes |  |  |  |  |  |  |  |
| CCC(OC)C(C)C1OC1C(O)C(C)/C=C/C=C(\C)C1OC(=O)CC(O)CCC(C)(O)C(OC(C)=O)/C=C/C1C (stereo not drawn) [Compound 1a, FD-895, reference compound] |  |  |  | 15 ± 5 mM (≈ 8.5 mg/mL) | 54.1 ± 7.5 nM | decrease in the long (anti-apoptotic) form and increased the expression of short (pro-apoptotic) form of MCL1 |  |  |  |  |
| CC[C@H](OC)[C@@H](C)[C@H]1O[C@@H]1[C@H](O)[C@@H](C)/C=C/C=C(\C)[C@H]1O[C@H](OC)[C@H](OC)[C@@H](OC)[C@@H]1OC [Compound 2, (1R,2S,3E,5E)-1-((2R,3R)-3-((2R,3S)-3-methoxypentan-2-yl)oxiran-2-yl)-2-methyl-6-((2R,3R,4S,5R,6S)-3,4,5,6-tetramethoxytetrahydro-2H-pyran-2-yl)hepta-3,5-dien-1-ol] |  | induced alternate splicing (AS) events | complementary splice modulation in all six genes |  |  | decrease in the long (anti-apoptotic) form and increased the expression of short (pro-apoptotic) form of MCL1 | 95 ± 5 mM (≈ 44.9 mg/mL) | 153 ± 11.8 nM | ~3 fold | no signs of decomposition |
| pladienolide B [Compound 1b, reference compound] |  |  |  |  | 84.4 ± 1.2 nM | decrease in the long (anti-apoptotic) form and increased the expression of short (pro-apoptotic) form of MCL1 |  |  |  |  |
